Reference: US20050180947A1, “Novel application of vaccination against TNF-alpha” (priority 2002, published 2005)

Assays:
[1] = tested on: rats with sciatic nerve constriction injury (CCI); details: spinal administration prior to CCI; cited from earlier work
[2] = tested on: Male Sprauge-Dawley rats, partial sciatic nerve ligation (PSNI model); test: Thermal hyperalgesia (plantar test, hind paw withdrawal latency) in the partial sciatic nerve ligation (PSNI/PSNL) model; assay type: in vivo, rat
Source text: Male Sprauge-Dawley rats (200-600 g) were used in all the experiments. The rats were permitted to acclimate 1 week before use in the experiments. The rats were marked with a speed marker on their tails and normally kept in groups of 2-3 per cage pre- and postoperatively. They were housed in clear plastic cages with solid floors covered with sawdust in a normal day/night cycle. Water and food were supplied ad libitum.
The method of partial sciatic nerve injury is developed by Seltzer. Before surgery, the rats were shaved and washed with iodine solution (Iobac vet.) on the surgical area. The left sciatic nerve was exposed at high-thigh level by making a 2-3 cm incision in the skin. The skin was then freed from the connective tissue surrounding the incision in order to assure free movement of the leg after skin stapling. Using blunt dissection through the biceps femoris, the nerve was exposed and carefully freed from surrounding connective tissue at a site near the trochanter just below the point at which the posterior biceps semitendinosus nerve branches off the common sciatic nerve. Using a small pincette slid under the nerve, the nerve was gently lifted up and fixed. An 8/0 Ethilon suture was inserted into the nerve and tightly ligated so that the dorsal 1/3-1/2 of the nerve thickness was trapped in the ligature. The muscle was closed with 2-3 muscle sutures (4/0 vicryl), and the skin closed with 3-4 skin staples.
Plantar test (Ugo Basile) was used in this study to asses the nociceptive response.
The rats were placed in the clear plastic chamber (18 cm×29 cm×12.5 cm) allowed to acclimate to the new environment for about 5 min. Before testing. During this time period the rat was showing exploratory behaviour e.g. standing on its hind leg. When the rat had been acclimated, it stood quietly with occasional bouts of grooming. The radiant heat score beneath the class floor was pointed at the planter hind paw with help from the white sight marks engraved on the top of the I.R vessel.
The infrared (IR) source was then started and the withdrawal latency recorded.
When the rat felt pain and withdrew its paw, the sudden drop in radiation led to a automatic stop of the IR source and the time counter and the withdrawal latency could be determined to the nearest 0.1 sec.
The withdrawal latency was every time tested 5 times with intervals of 5 min. The average of the 5 measurements were then used as the withdrawal latency of the specific rat.
Rats, which were undergoing PSNL, were only tested on the operated left leg. 3 consecutive days before the operation, the withdrawal latency of the left leg was measured using the average of the 3 days as the basic withdrawal latency. The rat was then tested postoperatively for more days.
The difference score, expressed as percent reduction from the basic level to the postoperative level measurement, was used as an index for hyperalgesia: [formula] (pom: postoperative measurement)
Group averages appear with the standard error of the mean. The significance level of difference between means of various groups at certain postoperative times was examined by Student's t-test. The difference between the same group but at different days was examined by ANOVA.

[3] = Soluble expression of TNF-α variants in E. coli; assay type: physicochemical
Source text: Insertion of the PADRE epitope (SEQ ID NO: 4) into loop 3 in position Gly108-Ala109 is a promising approach to prepare TNF-α variants with a structure closely resembling the native TNF-α molecule. It has been deduced from the TNF-α crystal structure that a TH epitope inserted directly into this position will not have any neighbouring amino acid residues in close proximity to interact with.

[4] = bacterial host cells grown at 37° C.

Clc1cccc(Cl)c1N=C1NCCN1 [clonidine]
delay in onset of thermal hyperestesia compared to control groups [1]: 3 days
difference score in percent between the basic level and the postoperative measurement ([2]; clonidine 0.6 mg/kg once at day 4 postoperatively after testing, day 5): −0.2±8.5%
difference score in percent between the basic level and the postoperative measurement ([2]; clonidine 0.6 mg/kg orally started 2 hours pre PSNI, repeated to day 2, day 2): 2.6±3.1%

O=C1CCC(N2C(=O)c3ccccc3C2=O)C(=O)N1 (stereo not shown) [thalidomide]
difference score in percent between the basic level and the postoperative measurement ([2]; thalidomide 50 mg/kg orally daily from 2 h pre-operation, day 2): 33.3±4.1%
difference score in percent between the basic level and the postoperative measurement ([2]; thalidomide 50 mg/kg orally daily, day 4): 33.9±5.9%
difference score in percent between the basic level and the postoperative measurement ([2]; thalidomide 50 mg/kg orally daily, day 6): 40.5±3.2%
difference score in percent between the basic level and the postoperative measurement ([2]; thalidomide 50 mg/kg orally daily, day 8): 41.3±3.4%
difference score in percent between the basic level and the postoperative measurement ([2]; thalidomide 50 mg/kg orally daily, day 10): 30.6±5.3%
difference score in percent between the basic level and the postoperative measurement ([2]; thalidomide 100 mg/kg orally daily from 2 h pre-operation, day 2): 22.0±7.2%
difference score in percent between the basic level and the postoperative measurement ([2]; thalidomide 100 mg/kg orally daily, day 4): 32.4±6.4%
difference score in percent between the basic level and the postoperative measurement ([2]; thalidomide 100 mg/kg orally daily, day 6): 38.0±4.1%
difference score in percent between the basic level and the postoperative measurement ([2]; thalidomide 100 mg/kg orally daily, day 8): 34.1±5.4%
difference score in percent between the basic level and the postoperative measurement ([2]; thalidomide 100 mg/kg orally daily, day 10): 29.8±4.6%

infliximab
difference score (basic level vs postoperative withdrawal latency) versus saline control ([2]; infliximab 5 mg/kg i.v. 2 hours prior to PSNL, days 2, 4, 6 and 7 postoperatively): No significant differences
difference score in percent between the basic level and the postoperative measurement ([2]; infliximab 5 μl (10 mg/ml) icv at days 2, 3 and 4, day 3): 39.2±5.6%
difference score in percent between the basic level and the postoperative measurement ([2]; infliximab 5 μl (10 mg/ml) icv at days 2, 3 and 4, day 4): 43.4±3.8%
difference score in percent between the basic level and the postoperative measurement ([2]; infliximab 5 μl (10 mg/ml) icv at days 2, 3 and 4, day 6): 47.2±4.0%
difference score in percent between the basic level and the postoperative measurement ([2]; infliximab 5 μl (10 mg/ml) icv at days 2, 3 and 4, day 8): 30.6±6.1%
nociceptive threshold compared to the control group ([2]; infliximab 5 μl (10 mg/ml) icv at days 2, 3 and 4 postoperatively): no significant difference
difference score in percent between the basic level and the postoperative measurement ([2]; infliximab 5 μl (10 mg/ml) icv at days 2, 3 and 4 postoperatively, day 2): 41.3±4.4%
difference score in percent between the basic level and the postoperative measurement ([2]; infliximab (10 mg/ml) icv continuously 0.5 μl/h by osmotic pump started day 3 preoperatively, day 2): 34.2±5.4%
difference score in percent between the basic level and the postoperative measurement ([2]; infliximab (10 mg/ml) icv continuously 0.5 μl/h started day 3 preoperatively, day 4): 34.6±5.4%
difference score in percent between the basic level and the postoperative measurement ([2]; infliximab (10 mg/ml) icv continuously 0.5 μl/h started day 3 preoperatively, day 6): 30.3±8.2%
difference score in percent between the basic level and the postoperative measurement ([2]; infliximab (10 mg/ml) icv continuously 0.5 μl/h started day 3 preoperatively, day 8): 27.5±5.2%

TNF_T0: three TNFα monomers linked by two GlyGlyGly linkers; SEQ ID NO: 22 in PCT/DK02/00764
expression form in E. coli / bacterial cells [3]: soluble protein

B1: TNF34: human TNF-α variant, PADRE epitope inserted into loop 3 at Gly108-Ala109; SEQ ID NO: 18 in PCT/DK02/00764 (protein)
chain: VRSSSRTPSDKPVAHVVANPQAEGQLQWLNRRANALLANGVELRDNQLVVPSEGLYLIYSQVLFKGQGCPSTHVLLTHTISRIAVSYQTKVNLLSAIKSPCQRETPEGAKFVAAWTLKAAAAEAKPWYEPIYLGGVFQLEKGDRLSAEINRPDYLDFAESGQVYFGIIAL
modifications: hTNF with inserted PADRE
fraction expressed as inclusion bodies [3, 4]: 95%
fraction of the expressed protein soluble in E. coli [3, 4]: approximately 5%
yield of soluble protein from the fermentation ([3]; fermentation temperature 25° C.): ~100%
